# Values quoted from earlier work in patent publication US20210121562A1, “PHARMACEUTICAL COMPOSITION FOR TREATMENT AND/OR PREVENTION OF CANCER” (TORAY INDUSTRIES, INC., priority 2018, published 2021).
# Experiments:
# [1] = test system: extramammary Paget's disease; settings: supportive care for extramammary Paget's disease
# basal cell cancer = basal cell cancer in patients having histories of rituximab administration for non-Hodgkin lymphoma
smiles,measurement,setting,value
"CC(C)Cn1cnc2c(N)nc3ccccc3c21 [imiquimod, 4-amino-1-(2-methylpropyl)-1H-imidazo[4,5-c]quinoline]",cases completely responded,[1],7 out of 9
same,antitumor effect of imiquimod,basal cell cancer,attenuated
